From ChEMBL document CHEMBL1938230, “6-Position optimization of tricyclic 4-quinolone-based inhibitors of glycogen synthase kinase-3β: discovery of nitrile derivatives with picomolar potency” (Bioorg Med Chem Lett, 2012)

Columns and labels:
Type in all cases: cell-free
[1] = target: Dual specificity tyrosine-phosphorylation-regulated kinase 1B (Homo sapiens) (UniProt Q9Y463); experiment: Inhibition of human DYRK1B in HL-60 cells lysate assessed as reduction of labeling of acyl-phosphate ATP probe at 100 nM
[2] = target: DNA-dependent protein kinase catalytic subunit (Homo sapiens) (UniProt P78527); experiment: Inhibition of human DNAPK in HL-60 cells lysate assessed as reduction of labeling of acyl-phosphate ATP probe at 100 nM
[3] = target: Tyrosine-protein kinase Fes/Fps (Homo sapiens) (UniProt P07332); experiment: Inhibition of human FES in HL-60 cells lysate assessed as reduction of labeling of acyl-phosphate ATP probe at 100 nM
Sequence of Tyrosine-protein kinase Fes/Fps (Homo sapiens) (P07332 whole entry): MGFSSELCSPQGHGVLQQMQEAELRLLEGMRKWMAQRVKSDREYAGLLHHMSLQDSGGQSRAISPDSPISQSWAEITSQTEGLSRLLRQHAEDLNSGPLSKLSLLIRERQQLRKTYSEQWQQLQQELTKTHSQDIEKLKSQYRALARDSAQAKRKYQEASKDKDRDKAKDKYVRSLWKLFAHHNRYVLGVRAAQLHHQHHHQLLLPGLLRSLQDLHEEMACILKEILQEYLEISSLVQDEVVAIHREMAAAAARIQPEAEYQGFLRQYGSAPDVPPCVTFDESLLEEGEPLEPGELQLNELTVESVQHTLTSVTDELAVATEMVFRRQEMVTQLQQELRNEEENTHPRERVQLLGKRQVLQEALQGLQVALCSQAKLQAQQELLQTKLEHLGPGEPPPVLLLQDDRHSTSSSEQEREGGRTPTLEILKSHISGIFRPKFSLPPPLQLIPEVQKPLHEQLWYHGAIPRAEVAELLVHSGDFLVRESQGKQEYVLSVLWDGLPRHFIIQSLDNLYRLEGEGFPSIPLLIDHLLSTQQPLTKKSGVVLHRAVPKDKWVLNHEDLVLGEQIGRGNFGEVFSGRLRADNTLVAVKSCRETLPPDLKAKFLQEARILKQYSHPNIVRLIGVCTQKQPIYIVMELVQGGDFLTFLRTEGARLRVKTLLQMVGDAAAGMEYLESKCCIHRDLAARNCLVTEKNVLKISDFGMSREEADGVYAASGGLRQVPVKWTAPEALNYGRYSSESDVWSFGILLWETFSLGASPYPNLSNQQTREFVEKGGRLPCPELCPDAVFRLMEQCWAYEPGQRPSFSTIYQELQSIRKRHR

[4] = target: Glycogen synthase kinase-3 beta (Homo sapiens, UniProt P49841); experiment: Inhibition of human GSK3-beta in HL-60 cells lysate assessed as reduction of labelling of acyl-phosphate ATP probe at 100 nM
Sequence of Glycogen synthase kinase-3 beta (P49841 whole entry, looked up): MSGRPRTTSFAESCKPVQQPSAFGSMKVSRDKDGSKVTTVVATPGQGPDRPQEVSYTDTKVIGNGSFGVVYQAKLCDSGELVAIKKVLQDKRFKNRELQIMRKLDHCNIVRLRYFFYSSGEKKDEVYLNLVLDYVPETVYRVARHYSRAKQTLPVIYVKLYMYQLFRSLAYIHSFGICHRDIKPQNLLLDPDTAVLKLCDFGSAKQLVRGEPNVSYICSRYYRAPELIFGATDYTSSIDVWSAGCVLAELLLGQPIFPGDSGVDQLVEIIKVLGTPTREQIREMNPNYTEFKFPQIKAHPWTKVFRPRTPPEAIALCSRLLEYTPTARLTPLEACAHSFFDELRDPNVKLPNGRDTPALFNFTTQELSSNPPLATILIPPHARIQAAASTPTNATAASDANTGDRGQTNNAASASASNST

[5] = target: Tyrosine-protein kinase BTK (Homo sapiens) (UniProt Q06187); experiment: Inhibition of human BTK in HL-60 cells lysate assessed as reduction of labeling of acyl-phosphate ATP probe at 100 nM
Sequence of Tyrosine-protein kinase BTK (Homo sapiens) (Q06187 whole entry): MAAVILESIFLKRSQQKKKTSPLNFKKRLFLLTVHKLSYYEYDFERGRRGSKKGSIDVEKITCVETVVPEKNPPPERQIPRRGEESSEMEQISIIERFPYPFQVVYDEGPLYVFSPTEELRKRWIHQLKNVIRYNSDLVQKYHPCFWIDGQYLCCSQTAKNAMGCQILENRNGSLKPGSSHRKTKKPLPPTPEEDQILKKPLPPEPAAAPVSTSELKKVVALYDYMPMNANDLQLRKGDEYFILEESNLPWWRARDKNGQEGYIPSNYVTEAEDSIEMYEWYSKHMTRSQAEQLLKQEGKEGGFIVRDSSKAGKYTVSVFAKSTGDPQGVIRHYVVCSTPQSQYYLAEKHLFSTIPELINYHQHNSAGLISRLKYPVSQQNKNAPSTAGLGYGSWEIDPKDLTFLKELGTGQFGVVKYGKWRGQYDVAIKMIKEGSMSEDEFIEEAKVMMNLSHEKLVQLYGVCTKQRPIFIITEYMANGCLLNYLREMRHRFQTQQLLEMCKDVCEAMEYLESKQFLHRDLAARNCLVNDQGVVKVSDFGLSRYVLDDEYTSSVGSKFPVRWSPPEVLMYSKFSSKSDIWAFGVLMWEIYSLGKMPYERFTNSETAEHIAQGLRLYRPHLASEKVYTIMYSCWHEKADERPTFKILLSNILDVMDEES

[6] = target: Mitogen-activated protein kinase kinase kinase 20 (Homo sapiens) (UniProt Q9NYL2); experiment: Inhibition of human ZAK in HL-60 cells lysate assessed as reduction of labeling of acyl-phosphate ATP probe at 100 nM
[7] = target: Phosphatidylinositol 4-kinase beta (Homo sapiens) (UniProt Q9UBF8); experiment: Inhibition of human PI4KB in HL-60 cells lysate assessed as reduction of labeling of acyl-phosphate ATP probe at 100 nM
Sequence of Phosphatidylinositol 4-kinase beta (Homo sapiens) (Q9UBF8 2-816 limits assumed): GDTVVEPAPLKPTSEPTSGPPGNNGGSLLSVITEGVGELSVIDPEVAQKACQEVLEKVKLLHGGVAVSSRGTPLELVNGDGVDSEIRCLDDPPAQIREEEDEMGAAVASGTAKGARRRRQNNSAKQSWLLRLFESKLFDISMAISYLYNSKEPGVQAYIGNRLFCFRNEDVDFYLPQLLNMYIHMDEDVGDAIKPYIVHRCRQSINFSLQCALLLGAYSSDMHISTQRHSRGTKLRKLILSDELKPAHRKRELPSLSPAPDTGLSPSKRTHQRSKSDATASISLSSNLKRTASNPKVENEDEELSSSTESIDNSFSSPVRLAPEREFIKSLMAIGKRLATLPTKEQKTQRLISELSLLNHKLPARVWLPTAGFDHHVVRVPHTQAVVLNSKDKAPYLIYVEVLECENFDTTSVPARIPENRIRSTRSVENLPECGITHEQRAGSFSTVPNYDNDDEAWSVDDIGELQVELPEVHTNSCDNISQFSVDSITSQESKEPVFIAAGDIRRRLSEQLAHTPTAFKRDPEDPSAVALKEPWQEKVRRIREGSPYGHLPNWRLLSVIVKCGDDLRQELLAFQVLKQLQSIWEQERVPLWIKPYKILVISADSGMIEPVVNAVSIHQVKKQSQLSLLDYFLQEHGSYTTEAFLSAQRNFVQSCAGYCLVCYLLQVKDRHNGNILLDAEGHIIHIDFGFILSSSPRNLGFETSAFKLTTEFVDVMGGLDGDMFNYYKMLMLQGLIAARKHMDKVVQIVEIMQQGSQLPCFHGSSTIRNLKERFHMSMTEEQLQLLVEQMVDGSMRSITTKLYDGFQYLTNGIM

[8] = target: Tyrosine-protein kinase CSK (Homo sapiens) (UniProt P41240); experiment: Inhibition of human CSK in HL-60 cells lysate assessed as reduction of labeling of acyl-phosphate ATP probe at 100 nM
Sequence of Tyrosine-protein kinase CSK (Homo sapiens) (P41240 2-450 limits assumed): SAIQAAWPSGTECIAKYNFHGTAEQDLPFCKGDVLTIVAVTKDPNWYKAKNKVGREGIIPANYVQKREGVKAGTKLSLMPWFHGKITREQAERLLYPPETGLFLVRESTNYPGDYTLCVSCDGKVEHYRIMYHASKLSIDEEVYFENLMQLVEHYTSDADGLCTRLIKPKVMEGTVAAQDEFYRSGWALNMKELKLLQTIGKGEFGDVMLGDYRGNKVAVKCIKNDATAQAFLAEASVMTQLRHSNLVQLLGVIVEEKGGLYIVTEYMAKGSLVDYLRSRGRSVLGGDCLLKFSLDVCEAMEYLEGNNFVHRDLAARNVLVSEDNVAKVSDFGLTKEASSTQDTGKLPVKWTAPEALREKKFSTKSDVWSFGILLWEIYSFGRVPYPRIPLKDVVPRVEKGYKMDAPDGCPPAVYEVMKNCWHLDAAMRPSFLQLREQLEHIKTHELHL

[9] = target: Tyrosine-protein kinase JAK1 (Homo sapiens) (UniProt P23458); experiment: Inhibition of human JAK1 domain2 in HL-60 cells lysate assessed as reduction of labeling of acyl-phosphate ATP probe at 100 nM
Sequence of Tyrosine-protein kinase JAK1 (Homo sapiens) (P23458 whole entry, the tested form may be a part): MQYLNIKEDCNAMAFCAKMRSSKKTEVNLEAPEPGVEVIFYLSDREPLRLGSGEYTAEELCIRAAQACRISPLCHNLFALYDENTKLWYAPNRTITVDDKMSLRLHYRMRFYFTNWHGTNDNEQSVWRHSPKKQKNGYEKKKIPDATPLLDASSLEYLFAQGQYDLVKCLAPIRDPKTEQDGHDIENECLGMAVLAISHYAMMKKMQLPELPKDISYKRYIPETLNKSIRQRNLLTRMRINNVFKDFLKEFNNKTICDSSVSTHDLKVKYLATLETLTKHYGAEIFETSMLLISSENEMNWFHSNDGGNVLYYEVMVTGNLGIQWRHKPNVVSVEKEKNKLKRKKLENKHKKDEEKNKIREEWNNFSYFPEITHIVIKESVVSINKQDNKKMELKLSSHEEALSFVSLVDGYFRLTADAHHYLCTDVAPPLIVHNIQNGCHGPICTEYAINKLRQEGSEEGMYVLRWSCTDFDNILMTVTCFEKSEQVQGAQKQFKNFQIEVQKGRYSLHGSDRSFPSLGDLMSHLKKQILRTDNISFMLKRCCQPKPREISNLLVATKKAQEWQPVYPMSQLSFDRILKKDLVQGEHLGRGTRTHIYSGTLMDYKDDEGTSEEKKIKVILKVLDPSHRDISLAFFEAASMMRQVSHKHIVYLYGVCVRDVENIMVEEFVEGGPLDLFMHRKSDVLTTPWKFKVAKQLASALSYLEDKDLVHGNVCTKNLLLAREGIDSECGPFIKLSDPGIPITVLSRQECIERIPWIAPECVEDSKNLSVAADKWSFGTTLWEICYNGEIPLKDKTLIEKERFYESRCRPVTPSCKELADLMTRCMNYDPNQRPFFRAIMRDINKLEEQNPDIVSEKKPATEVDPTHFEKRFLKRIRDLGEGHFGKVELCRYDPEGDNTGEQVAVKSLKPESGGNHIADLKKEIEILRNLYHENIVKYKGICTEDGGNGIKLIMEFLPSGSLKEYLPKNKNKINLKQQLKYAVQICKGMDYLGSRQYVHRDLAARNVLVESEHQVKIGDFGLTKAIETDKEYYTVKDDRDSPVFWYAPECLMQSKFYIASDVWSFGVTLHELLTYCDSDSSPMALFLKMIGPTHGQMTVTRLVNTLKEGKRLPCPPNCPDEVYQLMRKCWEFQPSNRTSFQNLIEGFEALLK

[10] = target: Dual specificity mitogen-activated protein kinase kinase 1 (Homo sapiens) (UniProt Q02750); experiment: Inhibition of human MAP2K1 in HL-60 cells lysate assessed as reduction of labeling of acyl-phosphate ATP probe at 100 nM
Sequence of Dual specificity mitogen-activated protein kinase kinase 1 (Homo sapiens) (Q02750 whole entry): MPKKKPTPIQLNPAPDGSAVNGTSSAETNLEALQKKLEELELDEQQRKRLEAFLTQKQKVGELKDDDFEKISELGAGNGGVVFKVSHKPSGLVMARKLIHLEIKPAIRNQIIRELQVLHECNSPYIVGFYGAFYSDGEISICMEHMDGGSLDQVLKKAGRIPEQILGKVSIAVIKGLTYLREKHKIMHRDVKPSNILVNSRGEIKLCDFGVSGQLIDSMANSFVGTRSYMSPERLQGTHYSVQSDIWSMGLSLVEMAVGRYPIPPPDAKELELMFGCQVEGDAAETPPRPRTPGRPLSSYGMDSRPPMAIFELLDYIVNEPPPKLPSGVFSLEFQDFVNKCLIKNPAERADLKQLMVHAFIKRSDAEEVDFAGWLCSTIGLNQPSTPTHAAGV

[11] = target: Serine/threonine-protein kinase ATR (Homo sapiens) (UniProt Q13535); experiment: Inhibition of human ATR in HL-60 cells lysate assessed as reduction of labeling of acyl-phosphate ATP probe at 100 nM
[12] = target: Cyclin-dependent kinase 6 (Homo sapiens) (UniProt Q00534); experiment: Inhibition of human CDK6 in HL-60 cells lysate assessed as reduction of labeling of acyl-phosphate ATP probe at 100 nM
Sequence of Cyclin-dependent kinase 6 (Homo sapiens) (Q00534 whole entry): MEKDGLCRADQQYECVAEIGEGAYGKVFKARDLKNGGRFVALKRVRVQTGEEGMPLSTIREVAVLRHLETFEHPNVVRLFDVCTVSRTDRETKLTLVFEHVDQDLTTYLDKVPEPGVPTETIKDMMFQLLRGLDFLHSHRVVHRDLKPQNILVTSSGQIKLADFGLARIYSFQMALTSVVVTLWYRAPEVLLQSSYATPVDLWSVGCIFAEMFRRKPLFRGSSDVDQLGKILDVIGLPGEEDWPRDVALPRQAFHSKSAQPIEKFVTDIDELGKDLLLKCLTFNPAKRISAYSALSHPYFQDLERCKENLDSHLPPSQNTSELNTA

[13] = target: T1, Receptor-interacting serine/threonine-protein kinase 1 (Homo sapiens) (UniProt Q13546); experiment: Inhibition of human RIPK1 in HL-60 cells lysate assessed as reduction of labeling of acyl-phosphate ATP probe at 100 nM
T1 sequence (whole entry): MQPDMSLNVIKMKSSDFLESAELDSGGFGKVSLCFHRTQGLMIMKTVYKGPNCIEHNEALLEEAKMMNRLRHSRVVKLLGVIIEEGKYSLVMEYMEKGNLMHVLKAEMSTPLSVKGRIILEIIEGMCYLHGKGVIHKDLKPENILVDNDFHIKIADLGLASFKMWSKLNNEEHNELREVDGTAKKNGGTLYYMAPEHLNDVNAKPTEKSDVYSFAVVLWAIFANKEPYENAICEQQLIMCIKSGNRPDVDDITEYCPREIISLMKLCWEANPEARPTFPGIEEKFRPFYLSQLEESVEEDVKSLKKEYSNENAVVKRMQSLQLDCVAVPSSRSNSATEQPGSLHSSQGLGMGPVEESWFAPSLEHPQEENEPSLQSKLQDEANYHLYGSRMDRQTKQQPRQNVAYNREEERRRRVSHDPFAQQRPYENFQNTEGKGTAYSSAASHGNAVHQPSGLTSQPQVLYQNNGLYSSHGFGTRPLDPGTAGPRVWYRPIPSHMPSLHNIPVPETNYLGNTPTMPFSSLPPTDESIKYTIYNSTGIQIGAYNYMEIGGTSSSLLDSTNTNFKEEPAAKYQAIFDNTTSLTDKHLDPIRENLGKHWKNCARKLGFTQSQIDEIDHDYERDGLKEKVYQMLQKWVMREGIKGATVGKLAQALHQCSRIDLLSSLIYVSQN

[14] = target: T2, Serine/threonine-protein kinase 3 (Homo sapiens) (UniProt Q13188); experiment: Inhibition of human MST2 in HL-60 cells lysate assessed as reduction of labeling of acyl-phosphate ATP probe at 100 nM
T2 sequence (whole entry): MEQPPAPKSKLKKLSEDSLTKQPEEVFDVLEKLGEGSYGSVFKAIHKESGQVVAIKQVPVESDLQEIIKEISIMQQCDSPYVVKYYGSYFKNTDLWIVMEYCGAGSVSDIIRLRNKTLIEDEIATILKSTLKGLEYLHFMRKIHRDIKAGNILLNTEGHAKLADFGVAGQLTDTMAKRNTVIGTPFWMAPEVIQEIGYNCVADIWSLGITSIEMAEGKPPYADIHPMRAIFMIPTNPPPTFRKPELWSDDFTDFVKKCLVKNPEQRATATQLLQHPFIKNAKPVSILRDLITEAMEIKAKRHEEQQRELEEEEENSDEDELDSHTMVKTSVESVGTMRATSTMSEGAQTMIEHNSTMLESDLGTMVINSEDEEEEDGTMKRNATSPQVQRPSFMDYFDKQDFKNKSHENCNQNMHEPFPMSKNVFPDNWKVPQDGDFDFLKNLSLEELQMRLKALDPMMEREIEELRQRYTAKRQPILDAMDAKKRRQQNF

[15] = target: T3, STE20-related kinase adapter protein alpha (Homo sapiens) (UniProt Q7RTN6); experiment: Inhibition of human STLK5 in HL-60 cells lysate assessed as reduction of labeling of acyl-phosphate ATP probe at 100 nM
T3 sequence (whole entry): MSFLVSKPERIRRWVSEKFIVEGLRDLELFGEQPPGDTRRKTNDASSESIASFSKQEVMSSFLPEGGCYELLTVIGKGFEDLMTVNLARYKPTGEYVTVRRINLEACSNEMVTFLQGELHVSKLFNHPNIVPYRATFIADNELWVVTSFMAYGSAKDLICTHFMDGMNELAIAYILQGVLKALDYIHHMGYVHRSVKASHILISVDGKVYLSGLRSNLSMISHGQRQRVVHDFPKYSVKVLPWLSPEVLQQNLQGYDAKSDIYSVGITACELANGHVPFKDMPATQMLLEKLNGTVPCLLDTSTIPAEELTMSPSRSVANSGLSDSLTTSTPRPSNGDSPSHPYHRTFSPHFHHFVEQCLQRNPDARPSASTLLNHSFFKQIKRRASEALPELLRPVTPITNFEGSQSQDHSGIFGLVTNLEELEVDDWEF

[16] = target: RAF proto-oncogene serine/threonine-protein kinase (Homo sapiens) (UniProt P04049); experiment: Inhibition of human RAF1 in HL-60 cells lysate assessed as reduction of labeling of acyl-phosphate ATP probe at 100 nM

Compound: C[C@H]1COc2c(NCCCc3ccccn3)c(F)c(N)c3c(=O)c(C#N)cn1c23
- inhibition [1]: < 35%
- inhibition [2]: < 35%
- inhibition [3]: < 35%
- inhibition [4]: > 99.5%
- inhibition [5]: < 35%
- inhibition [6]: < 35%
- inhibition [7]: < 35%
- inhibition [8]: < 35%
- inhibition [9]: < 35%
- inhibition [10]: < 35%
- inhibition [11]: < 35%
- inhibition [12]: < 35%
- inhibition [13]: < 35%
- inhibition [14]: < 35%
- inhibition [15]: < 35%
- inhibition [16]: < 35%

Compound: C[C@H]1COc2c(NCCCc3ccccn3)c(F)c(N)c3c(=O)c(C(=O)O)cn1c23
- inhibition [1]: < 35%
- inhibition [2]: < 35%
- inhibition [3]: < 35%
- inhibition [4]: 82.9%
- inhibition [5]: < 35%
- inhibition [6]: < 35%
- inhibition [7]: < 35%
- inhibition [8]: < 35%
- inhibition [9]: < 35%
- inhibition [10]: < 35%
- inhibition [11]: < 35%
- inhibition [12]: < 35%
- inhibition [13]: < 35%
- inhibition [14]: < 35%
- inhibition [15]: < 35%
- inhibition [16]: < 35%

Compound: C[C@H]1COc2c(NCCCn3cccn3)c(F)c(N)c3c(=O)c(C(=O)O)cn1c23
- inhibition [1]: < 35%
- inhibition [2]: < 35%
- inhibition [3]: < 35%
- inhibition [4]: 87.8%
- inhibition [5]: < 35%
- inhibition [6]: < 35%
- inhibition [7]: < 35%
- inhibition [8]: < 35%
- inhibition [9]: < 35%
- inhibition [10]: < 35%
- inhibition [11]: < 35%
- inhibition [12]: < 35%
- inhibition [13]: < 35%
- inhibition [14]: < 35%
- inhibition [15]: < 35%
- inhibition [16]: < 35%

Compound: C[C@H]1COc2c(NCCCn3cccn3)c(F)c(N)c3c(=O)c(C#N)cn1c23
- inhibition [1]: < 35%
- inhibition [2]: < 35%
- inhibition [3]: < 35%
- inhibition [4]: 99.2%
- inhibition [5]: < 35%
- inhibition [6]: < 35%
- inhibition [7]: < 35%
- inhibition [8]: < 35%
- inhibition [9]: < 35%
- inhibition [10]: < 35%
- inhibition [11]: < 35%
- inhibition [12]: < 35%
- inhibition [13]: < 35%
- inhibition [14]: < 35%
- inhibition [15]: < 35%
- inhibition [16]: < 35%
